Reference: ChEMBL document CHEMBL6096665 (Eur J Med Chem, 2025)

Molecular target: T1, Bile acid receptor (Homo sapiens, UniProt Q96RI1)
T1 sequence (Q96RI1 whole entry): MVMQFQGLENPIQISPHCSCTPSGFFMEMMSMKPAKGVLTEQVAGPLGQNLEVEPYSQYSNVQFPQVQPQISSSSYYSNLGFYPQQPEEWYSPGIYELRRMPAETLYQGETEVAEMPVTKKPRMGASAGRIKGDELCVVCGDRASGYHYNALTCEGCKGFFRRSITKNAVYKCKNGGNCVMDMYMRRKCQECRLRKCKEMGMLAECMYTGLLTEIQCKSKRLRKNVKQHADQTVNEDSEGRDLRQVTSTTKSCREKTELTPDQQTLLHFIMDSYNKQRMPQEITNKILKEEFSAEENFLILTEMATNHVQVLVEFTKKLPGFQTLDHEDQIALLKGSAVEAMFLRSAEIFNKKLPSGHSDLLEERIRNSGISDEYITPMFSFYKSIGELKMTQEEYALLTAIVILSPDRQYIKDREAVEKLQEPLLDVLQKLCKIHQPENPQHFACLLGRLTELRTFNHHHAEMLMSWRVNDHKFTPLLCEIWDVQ
Assay: Agonist activity at FXR-LBD (unknown origin) incubated for 3 hrs using fluorescein coactivator peptide by FRET assay

EC50: 253 nM
Structure (SMILES): O=C(O)c1ccc(OCc2ccc(OCc3c(-c4c(Cl)cccc4Cl)noc3C3CC3)cc2)cc1
